Experimental findings from US20250381190A1, “THERAPEUTIC COMBINATIONS OF CAPIVASERTIB AND VENETOCLAX” (AstraZeneca AB, priority 2022, published 2025) are described below.

One may read the TGI as the reduction of tumour growth relative to the control group.

The subject of data set [1] is SUDHL4 human GCB-DLBCL tumor cells. As to the kind of experiment: SUDHL4 xenograft efficacy (tumor volume, TGI, regression). In kind it is in vivo, female CB.17 SCID mice. The settings on record: Study 1. As for the experimental part: (§1) For the experiments described below, SUDHL4 human GCB-DLBCL tumor cells (10×10^6/mouse) were implanted subcutaneously into female CB.17 SCID mice. Mice were randomized into groups of 5 for efficacy and tolerability assessments based on tumor volume and treated with either vehicles (10% DMSO/25% Kleptose pH=5 (Vehicle 1) and 10% ethanol/30% PEG 400/60% Phosal PG-50 (Vehicle 2)), 130 mg/kg or 45 mg/kg capivasertib, 100 mg/kg venetoclax or the combination of capivasertib and venetoclax. Capivasertib was formulated in 10% DMSO/25% Kleptose pH=5 and venetoclax was formulated in 10% ethanol/30% PEG 400/60% Phosal PG-50. All agents were dosed by oral gavage at a 5 ml/kg dose volume according to schedules described, following tumor cell implantation. Tumor length and width was measured by caliper and tumor volume was calculated using the formula (length×width^2)*π/6.

Data set [2] can be described thus: Tolerability (body weight change) in SUDHL4 tumor-bearing mice. In kind it is in vivo, female CB.17 SCID mice. The conditions noted are these: Study 1. On the procedure: as §1
For data set [3], the system named is DLBCL cell lines. As to the kind of experiment: In vitro activity against DLBCL cell lines. In kind it is cell-based. The settings on record: used individually.
Setting [4] is: capivasertib 130 mg/kg PO BID 10/14 4 days on/3 days off x 22 days.
[5] abbreviates: venetoclax 100 mg/kg PO QD (continuous) x 22 days.

In the case of `NC1(C(=O)N[C@@H](CCO)c2ccc(Cl)cc2)CCN(c2ncnc3[nH]ccc23)CC1` [Capivasertib, (S)-4-amino-N-(1-(4-chlorophenyl)-3-hydroxypropyl)-1-(7H-pyrrolo[2,3-d]pyrimidin-4-yl)piperidine-4-carboxamide], in data set [1] (setting [4]), the Regression turned out to be 0%. Besides, the tumour growth inhibition (TGI) in data set [1] (setting [4]) was determined as 82%; in data set [1] (capivasertib 130 mg/kg PO BID 10/14 4 days on/3 days off x 22 days, listed as capivasertib), 82%. In addition, the “Max avg body weight loss” value in data set [2] (setting [4]) was determined as 6%. Moreover, in data set [3], the “Activity against DLBCL cell lines” value is on record as “have activity”.

Turning to `CC1(C)CCC(CN2CCN(c3ccc(C(=O)NS(=O)(=O)c4ccc(NCC5CCOCC5)c([N+](=O)[O-])c4)c(Oc4cnc5[nH]ccc5c4)c3)CC2)=C(c2ccc(Cl)cc2)C1` [Venetoclax, 4-(4-{[2-(4-chlorophenyl)-4,4-dimethylcyclohex-1-en-1-yl]methyl}piperazin-1-yl)-N-({3-nitro-4-[(tetrahydro-2H-pyran-4-ylmethyl)amino]phenyl}sulfonyl)-2-(1H-pyrrolo[2,3-b]pyridin-5-yloxy)benzamide], the Regression in data set [1] (setting [5]) was determined as 0%. Further, the tumour growth inhibition (TGI) in data set [1] (setting [5]) was determined as 42%; in data set [1] (venetoclax 100 mg/kg PO QD (continuous) x 22 days, listed as venetoclax), 42%. Besides, in data set [2] (setting [5]), the “Max avg body weight loss” value is 2%. Besides, in data set [3], the “Activity against DLBCL cell lines” value is “have activity”.
